The first assay deals with brain. Put plainly: Matured TTM-001 and TTM-002 variants, NGS enrichment in mouse brain. It counts as in vivo, mice. As to conditions: NGS fold-enrichment, brain of mice, relative to AAV9 control.
KTELTSGSPHSKAQNQQT: the “Fold Enrichment relative to AAV9, Brain (Mouse)” value turned out to be 100.311 fold.

Consider KTENLSGSPHSKAQNQQT, for which the “Fold Enrichment relative to AAV9, Brain (Mouse)” value is listed as 107.385 fold.

Consider KTINGLGSPHSKSQNQQT, for which the “Fold Enrichment relative to AAV9, Brain (Mouse)” value is listed as 64.139 fold.

KTESTSGSPHSKAQNQQT: the “Fold Enrichment relative to AAV9, Brain (Mouse)” value is reported as 95.861 fold.

Take KTERNSGSPHSKAQNQQT: the “Fold Enrichment relative to AAV9, Brain (Mouse)” value worked out at 87.392 fold.

The same assay, now with this note: NGS fold-enrichment, mouse brain, relative to AAV9 control.
Consider KTINGRGSPHKRGQNQQT, for which the “Fold Enrichment relative to AAV9, Brain (Mouse)” value was determined as 13.988 fold.

For the sequence KTINGHDSPHKSWVRQQT, the “Fold Enrichment relative to AAV9, Brain (Mouse)” value turned out to be 11.687 fold.

Consider KAINGHDNPHKSGQNQQT, for which the “Fold Enrichment relative to AAV9, Brain (Mouse)” value is on record as 9.702 fold.

Consider KAINGHDSPHKSGQIRQT, for which the “Fold Enrichment relative to AAV9, Brain (Mouse)” value came out at 8.862 fold.

KTERNSGSPHSKAQNQQT: the “Fold Enrichment relative to AAV9, Brain (Mouse)” value stood at 87.392 fold.

The next assay concerns brains, heart, liver, muscle, and DRG of the NHPs. Put plainly: Maturation of TTM-001 and TTM-002 capsids, NGS enrichment in NHP tissues. It counts as in vivo. The note with it: NGS fold-enrichment of RNA, NHP brain, relative to AAV9 control. An outline of the steps: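 Variants carry mutations within and flanking the loop IV peptide insert: positions 450–466 were triplet-randomized, while positions 449–466 received low-frequency point mutations. The combined pool went into two NHPs, and each peptide was scored by NGS enrichment ratio against AAV9.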
Take KTINGRGSPHKRGQNQQT: the “Fold Enrichment relative to AAV9, Brain (NHP)” value worked out at 120.889 fold.

Turning to KTINGHDSPHKSWVRQQT, the “Fold Enrichment relative to AAV9, Brain (NHP)” value came out at 125.537 fold.

Consider KAINGHDNPHKSGQNQQT, for which the “Fold Enrichment relative to AAV9, Brain (NHP)” value is recorded as 88.906 fold.

Regarding KAINGHDSPHKSGQIRQT, the “Fold Enrichment relative to AAV9, Brain (NHP)” value turned out to be 108.510 fold.

Take KTERNSGSPHSKAQNQQT: the “Fold Enrichment relative to AAV9, Brain (NHP)” value came to 99.892 fold.

Staying with this assay, now noted: NGS fold-enrichment, DRG of NHPs, relative to AAV9 control.
On to KTELTSGSPHSKAQNQQT, for which the “Fold Enrichment relative to AAV9, DRG (NHP)” value is recorded as 0.000 fold.

On to KTENLSGSPHSKAQNQQT, for which the “Fold Enrichment relative to AAV9, DRG (NHP)” value is 0.070 fold.

Take KTINGLGSPHSKSQNQQT: the “Fold Enrichment relative to AAV9, DRG (NHP)” value was determined as 0.000 fold.

KTESTSGSPHSKAQNQQT: the “Fold Enrichment relative to AAV9, DRG (NHP)” value is 0.000 fold.

As for KTERNSGSPHSKAQNQQT, the “Fold Enrichment relative to AAV9, DRG (NHP)” value was determined as 0.000 fold.

The assay is the same for the next values; noted with them: NGS fold-enrichment, NHP DRG, relative to AAV9 control.
Take KTINGRGSPHKRGQNQQT: the “Fold Enrichment relative to AAV9, DRG (NHP)” value was 0.100 fold.

With KTINGHDSPHKSWVRQQT, the “Fold Enrichment relative to AAV9, DRG (NHP)” value came to 0.000 fold.

On to KAINGHDNPHKSGQNQQT, for which the “Fold Enrichment relative to AAV9, DRG (NHP)” value amounted to 0.297 fold.

For the sequence KAINGHDSPHKSGQIRQT, the “Fold Enrichment relative to AAV9, DRG (NHP)” value was found to be 0.000 fold.

With KTERNSGSPHSKAQNQQT, the “Fold Enrichment relative to AAV9, DRG (NHP)” value amounted to 0.000 fold.

The assay is the same for the next values; noted with them: NGS fold-enrichment, NHP heart, relative to AAV9 control.
Turning to KTINGRGSPHKRGQNQQT, the “Fold Enrichment relative to AAV9, Heart (NHP)” value was 0.814 fold.

On to KTINGHDSPHKSWVRQQT, for which the “Fold Enrichment relative to AAV9, Heart (NHP)” value is on record as 0.033 fold.

Turning to KAINGHDNPHKSGQNQQT, the “Fold Enrichment relative to AAV9, Heart (NHP)” value is recorded as 0.721 fold.

Consider KAINGHDSPHKSGQIRQT, for which the “Fold Enrichment relative to AAV9, Heart (NHP)” value is listed as 23.908 fold.

In the case of KTERNSGSPHSKAQNQQT, the “Fold Enrichment relative to AAV9, Heart (NHP)” value was 0.000 fold.

The assay is the same for the next values; noted with them: NGS fold-enrichment, NHP liver DNA, relative to AAV9 control.
For KTINGRGSPHKRGQNQQT, the “Fold Enrichment relative to AAV9, Liver DNA (NHP)” value came out at 0.614 fold.

For KTINGHDSPHKSWVRQQT, the “Fold Enrichment relative to AAV9, Liver DNA (NHP)” value worked out at 0.174 fold.

For KAINGHDNPHKSGQNQQT, the “Fold Enrichment relative to AAV9, Liver DNA (NHP)” value was 0.130 fold.

Take KAINGHDSPHKSGQIRQT: the “Fold Enrichment relative to AAV9, Liver DNA (NHP)” value came to 0.261 fold.

On to KTERNSGSPHSKAQNQQT, for which the “Fold Enrichment relative to AAV9, Liver DNA (NHP)” value is recorded as 0.107 fold.

Still in this assay, the particulars now being: NGS fold-enrichment, NHP liver RNA, relative to AAV9 control.
For KTINGRGSPHKRGQNQQT, the “Fold Enrichment relative to AAV9, Liver RNA (NHP)” value is recorded as 0.458 fold.

In the case of KTINGHDSPHKSWVRQQT, the “Fold Enrichment relative to AAV9, Liver RNA (NHP)” value was found to be 0.291 fold.

For KAINGHDNPHKSGQNQQT, the “Fold Enrichment relative to AAV9, Liver RNA (NHP)” value came to 0.222 fold.

Turning to KAINGHDSPHKSGQIRQT, the “Fold Enrichment relative to AAV9, Liver RNA (NHP)” value was 0.132 fold.

KTERNSGSPHSKAQNQQT: the “Fold Enrichment relative to AAV9, Liver RNA (NHP)” value stood at 0.000 fold.

The assay is the same for the next values; noted with them: NGS fold-enrichment, NHP muscle, relative to AAV9 control.
Regarding KTINGRGSPHKRGQNQQT, the “Fold Enrichment relative to AAV9, Muscle (NHP)” value amounted to 0.434 fold.

Regarding KTINGHDSPHKSWVRQQT, the “Fold Enrichment relative to AAV9, Muscle (NHP)” value stood at 0.000 fold.

For KAINGHDNPHKSGQNQQT, the “Fold Enrichment relative to AAV9, Muscle (NHP)” value was found to be 0.482 fold.

Regarding KAINGHDSPHKSGQIRQT, the “Fold Enrichment relative to AAV9, Muscle (NHP)” value is on record as 0.000 fold.

Turning to KTERNSGSPHSKAQNQQT, the “Fold Enrichment relative to AAV9, Muscle (NHP)” value came out at 0.000 fold.

Still in this assay, the particulars now being: NGS fold-enrichment, RNA, brain of NHPs, relative to AAV9 control.
Consider KTELTSGSPHSKAQNQQT, for which the “Fold Enrichment relative to AAV9, Brain (NHP)” value is 74.548 fold.

Take KTENLSGSPHSKAQNQQT: the “Fold Enrichment relative to AAV9, Brain (NHP)” value was 70.303 fold.

Regarding KTINGLGSPHSKSQNQQT, the “Fold Enrichment relative to AAV9, Brain (NHP)” value came out at 62.170 fold.

With KTESTSGSPHSKAQNQQT, the “Fold Enrichment relative to AAV9, Brain (NHP)” value came to 66.649 fold.

In the case of KTERNSGSPHSKAQNQQT, the “Fold Enrichment relative to AAV9, Brain (NHP)” value is 99.892 fold.

The same assay, now with this note: NGS fold-enrichment, heart of NHPs, relative to AAV9 control.
In the case of KTELTSGSPHSKAQNQQT, the “Fold Enrichment relative to AAV9, Heart (NHP)” value stood at 0.000 fold.

On to KTENLSGSPHSKAQNQQT, for which the “Fold Enrichment relative to AAV9, Heart (NHP)” value stood at 0.000 fold.

In the case of KTINGLGSPHSKSQNQQT, the “Fold Enrichment relative to AAV9, Heart (NHP)” value is on record as 0.157 fold.

As to KTESTSGSPHSKAQNQQT, the “Fold Enrichment relative to AAV9, Heart (NHP)” value was determined as 0.009 fold.

Turning to KTERNSGSPHSKAQNQQT, the “Fold Enrichment relative to AAV9, Heart (NHP)” value is 0.000 fold.

The assay is the same for the next values; noted with them: NGS fold-enrichment, liver DNA of NHPs, relative to AAV9 control.
As for KTELTSGSPHSKAQNQQT, the “Fold Enrichment relative to AAV9, Liver DNA (NHP)” value worked out at 0.421 fold.

Regarding KTENLSGSPHSKAQNQQT, the “Fold Enrichment relative to AAV9, Liver DNA (NHP)” value came out at 0.470 fold.

KTINGLGSPHSKSQNQQT: the “Fold Enrichment relative to AAV9, Liver DNA (NHP)” value turned out to be 0.107 fold.

Turning to KTESTSGSPHSKAQNQQT, the “Fold Enrichment relative to AAV9, Liver DNA (NHP)” value amounted to 0.176 fold.

Regarding KTERNSGSPHSKAQNQQT, the “Fold Enrichment relative to AAV9, Liver DNA (NHP)” value stood at 0.107 fold.

Staying with this assay, now noted: NGS fold-enrichment, liver RNA of NHPs, relative to AAV9 control.
Regarding KTELTSGSPHSKAQNQQT, the “Fold Enrichment relative to AAV9, Liver RNA (NHP)” value is recorded as 0.537 fold.

With KTENLSGSPHSKAQNQQT, the “Fold Enrichment relative to AAV9, Liver RNA (NHP)” value was determined as 0.395 fold.

As to KTINGLGSPHSKSQNQQT, the “Fold Enrichment relative to AAV9, Liver RNA (NHP)” value is 0.146 fold.

As for KTESTSGSPHSKAQNQQT, the “Fold Enrichment relative to AAV9, Liver RNA (NHP)” value is listed as 1.688 fold.

Take KTERNSGSPHSKAQNQQT: the “Fold Enrichment relative to AAV9, Liver RNA (NHP)” value was 0.000 fold.

Staying with this assay, now noted: NGS fold-enrichment, muscle of NHPs, relative to AAV9 control.
As for KTELTSGSPHSKAQNQQT, the “Fold Enrichment relative to AAV9, Muscle (NHP)” value is reported as 0.000 fold.

Take KTENLSGSPHSKAQNQQT: the “Fold Enrichment relative to AAV9, Muscle (NHP)” value was determined as 0.000 fold.

Consider KTINGLGSPHSKSQNQQT, for which the “Fold Enrichment relative to AAV9, Muscle (NHP)” value is 0.000 fold.

For KTESTSGSPHSKAQNQQT, the “Fold Enrichment relative to AAV9, Muscle (NHP)” value is reported as 0.000 fold.

On to KTERNSGSPHSKAQNQQT, for which the “Fold Enrichment relative to AAV9, Muscle (NHP)” value is given as 0.000 fold.

Values taken from patent publication US20260250318A1, “COMPOSITIONS AND METHODS FOR CROSSING THE BLOOD BRAIN BARRIER” (VOYAGER THERAPEUTICS, INC., priority 2022, published 2026).
